Values quoted from earlier work in US20220241230A1, “DICLOFENAC SACHET COMPOSITION” (Patrin Pharma, Inc., priority 2021, published 2022).

Key:
[1] = commercially available sugar coated tablets
[2] = 100 mg and 50 mg tablets, versus placebo
[3] = 50 mg and 100 mg sugar coated tablets

## O=C(O)Cc1ccccc1Nc1c(Cl)cccc1Cl [diclofenac potassium, Diclofenac potassium]
[1]
  terminal half-life: about 1.9 hours
50 mg and 100 mg immediate release tablets, versus placebo, statistical significance not reported
  incidence of headache recurrence within 48 hours of treatment: higher incidence of headache recurrence than patients treated with placebo
[3]
  effectiveness against phonophobia two hours after treatment: only the 100 mg dose was effective
  effectiveness against photophobia eight hours after treatment: both doses were effective
  effectiveness against photophobia two hours after treatment: neither dose was effective
  relief of migraine pain within two hours of treatment: ability of both doses to relieve migraine pain
50 mg sugar coated tablets
  effectiveness against photophobia eight hours after treatment, 50 mg dose: effective

## O=C(O)Cc1ccccc1Nc1c(Cl)cccc1Cl [diclofenac, [(2,6-dichloro-anilino)-2-phenyl]-2-acetic acid]
[2]
  effectiveness against migraine pain within two hours of treatment: both strengths were effective
  effectiveness against phonophobia and photophobia within two hours: only the 100 mg strength was effective
